In PubChem BioAssay AID248 (DTP/NCI, 2004):
Several values for one entry are separate records, joined by “and”; a condition that tells them apart may be missing. Equal entries are not always repeated. Toxic doses and inconclusive results are not listed. Rule as the data show it: active = T/C of 150% or more; inactive = T/C below 125%.

Test system: L1210 leukemia ip in BDF1 mice, survival T/C
Experiment: NCI In Vivo Anticancer Drug Screen. Data for tumor model L1210 Leukemia (intraperitoneal) in B6D2F1 (BDF1) mice
Settings: endpoint: mean survival time, higher = longer survival
Summary of the method: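 Ratio derived from survival: compound-dosed mice over vehicle-dosed mice, all bearing a transplantable tumor.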

[1] = dose: 100.0 mg/kg/injection, schedule: Q01DX009 (ip), vehicle: saline with Tween-80
[2] = dose: 100.0 mg/kg/injection, schedule: Q01DX009 (ip), vehicle: saline
[3] = dose: 100.0 mg/kg/injection, schedule: Q01DX001 (ip), vehicle: saline
[4] = dose: 200.0 mg/kg/injection, schedule: Q01DX001 (ip), vehicle: saline
[5] = dose: 400.0 mg/kg/injection, schedule: Q01DX001 (ip), vehicle: saline
[6] = dose: 100.0 mg/kg/injection, schedule: Q04DX003 (ip), vehicle: saline
[7] = dose: 200.0 mg/kg/injection, schedule: Q04DX003 (ip), vehicle: saline
[8] = dose: 400.0 mg/kg/injection, schedule: Q04DX003 (ip), vehicle: saline
[9] = dose: 25.0 mg/kg/injection, schedule: Q04DX003 (ip), vehicle: Klucel (hydroxypropylcellulose) (HPC)
[10] = dose: 50.0 mg/kg/injection, schedule: Q04DX003 (ip), vehicle: Klucel (hydroxypropylcellulose) (HPC)
[11] = dose: 50.0 mg/kg/injection, schedule: Q01DX001 (ip), vehicle: saline
[12] = dose: 100.0 mg/kg/injection, schedule: Q04DX002 (ip), vehicle: Klucel (hydroxypropylcellulose) (HPC)
[13] = dose: 200.0 mg/kg/injection, schedule: Q04DX002 (ip), vehicle: Klucel (hydroxypropylcellulose) (HPC)
[14] = dose: 400.0 mg/kg/injection, schedule: Q04DX002 (ip), vehicle: Klucel (hydroxypropylcellulose) (HPC)
[15] = dose: 50.0 mg/kg/injection, schedule: Q01DX001 (ip), vehicle: carboxymethylcellulose (CMC)
[16] = dose: 100.0 mg/kg/injection, schedule: Q01DX001 (ip), vehicle: carboxymethylcellulose (CMC)
[17] = dose: 200.0 mg/kg/injection, schedule: Q01DX001 (ip), vehicle: carboxymethylcellulose (CMC)

Measured: T/C

NC(N)=NNc1ccccc1
inactive: dose: 25.0 mg/kg/injection, schedule: Q01DX009 (ip), vehicle: saline with Tween-80 115 % of control | dose: 50.0 mg/kg/injection, schedule: Q01DX009 (ip), vehicle: saline with Tween-80 107 % of control | dose: 50.0 mg/kg/injection, schedule: Q01DX009 (ip), vehicle: saline 95 % of control | [1] 86 % of control | [2] 97 % of control

S=C(NCc1ccncc1)Nc1ccccc1Cl
inactive: dose: 100.0 mg/kg/injection, schedule: Q01DX009 (ip), vehicle: Klucel (hydroxypropylcellulose) (HPC) 101 % of control | dose: 200.0 mg/kg/injection, schedule: Q01DX009 (ip), vehicle: Klucel (hydroxypropylcellulose) (HPC) 95 % of control | dose: 400.0 mg/kg/injection, schedule: Q01DX009 (ip), vehicle: Klucel (hydroxypropylcellulose) (HPC) 98 % of control

CC(C)OC(=O)C(C)(OC(=O)c1ccccc1)c1ccccc1 (configuration not stated)
inactive: [3] 94 % of control | [4] 91 % of control | [5] 88 % of control

CCOC(=O)C1CN(Cc2ccccc2)CCC1=O (configuration not stated)
inactive: [6] 103 % of control | [7] 106 % of control | [8] 100 % of control

NC(=O)NC(CCl)NC(N)=O
inactive: dose: 25.0 mg/kg/injection, schedule: Q01DX009 (ip), vehicle: acetone 95 % of control | dose: 25.0 mg/kg/injection, schedule: Q04DX003 (ip), vehicle: saline 96 % of control | dose: 50.0 mg/kg/injection, schedule: Q01DX009 (ip), vehicle: acetone 94 % of control | dose: 50.0 mg/kg/injection, schedule: Q04DX003 (ip), vehicle: saline 94 % of control | dose: 100.0 mg/kg/injection, schedule: Q01DX001 (ip), vehicle: acetone 94 % of control | [6] 89 % of control

O=C1NC(c2ccccc2)(c2ccccc2)C(=O)N1CN1CCN(CN2C(=O)NC(c3ccccc3)(c3ccccc3)C2=O)CC1
inactive: dose: 6.25 mg/kg/injection, schedule: Q01DX009 (ip), vehicle: saline sonified 99 % of control | dose: 12.5 mg/kg/injection, schedule: Q01DX009 (ip), vehicle: saline sonified 100 % of control | dose: 25.0 mg/kg/injection, schedule: Q01DX009 (ip), vehicle: saline sonified 94 % of control | dose: 100.0 mg/kg/injection, schedule: Q01DX001 (ip), vehicle: Klucel (hydroxypropylcellulose) (HPC) 108 % of control | dose: 200.0 mg/kg/injection, schedule: Q01DX001 (ip), vehicle: Klucel (hydroxypropylcellulose) (HPC) 92 % of control | dose: 400.0 mg/kg/injection, schedule: Q01DX001 (ip), vehicle: Klucel (hydroxypropylcellulose) (HPC) 92 % of control

C1CCC2C(C1)C2(N1CCCC1)N1CCCC1 (configuration not stated)
inactive: dose: 6.25 mg/kg/injection, schedule: Q01DX009 (ip), vehicle: Klucel (hydroxypropylcellulose) (HPC) 101 % of control | dose: 12.5 mg/kg/injection, schedule: Q01DX009 (ip), vehicle: Klucel (hydroxypropylcellulose) (HPC) 100 % of control | dose: 12.5 mg/kg/injection, schedule: Q04DX003 (ip), vehicle: Klucel (hydroxypropylcellulose) (HPC) 98 % of control | dose: 25.0 mg/kg/injection, schedule: Q01DX009 (ip), vehicle: Klucel (hydroxypropylcellulose) (HPC) 93 % of control and 92 % of control | [9] 98 % of control | [10] 94 % of control

COc1ccccc1Cl
inactive: [1] 94 % of control | dose: 100.0 mg/kg/injection, schedule: Q04DX003 (ip), vehicle: saline with Tween-80 106 % of control | dose: 200.0 mg/kg/injection, schedule: Q01DX009 (ip), vehicle: saline with Tween-80 86 % of control | dose: 200.0 mg/kg/injection, schedule: Q04DX003 (ip), vehicle: saline with Tween-80 104 % of control | dose: 400.0 mg/kg/injection, schedule: Q04DX003 (ip), vehicle: saline with Tween-80 93 % of control

CC(=O)CC(=O)CC(C)C
inactive: [11] 105 % of control | [3] 103 % of control | [4] 100 % of control | [5] 94 % of control

NC(=O)/C(=C\c1ccc([N+](=O)[O-])o1)c1ccco1
inactive: dose: 55.0 mg/kg/injection, schedule: Q01DX Z (ip), vehicle: methylcellulose (MC) 93 % of control | dose: 83.0 mg/kg/injection, schedule: Q01DX Z (ip), vehicle: methylcellulose (MC) 98 % of control | dose: 125.0 mg/kg/injection, schedule: Q01DX Z (ip), vehicle: methylcellulose (MC) 100 % of control

COC(=O)C1(c2ccccc2)C(c2ccccc2)=C(c2ccccc2)C(c2ccccc2)CC1c1ccccc1 (configuration not stated)
inactive: [12] 103 % of control | [13] 96 % of control | [14] 92 % of control

ClCCC1CNCCN1 (configuration not stated)
inactive: [2] 87 % of control | [6] 96 % of control | dose: 200.0 mg/kg/injection, schedule: Q01DX009 (ip), vehicle: saline 89 % of control | [7] 96 % of control | dose: 400.0 mg/kg/injection, schedule: Q01DX009 (ip), vehicle: saline 89 % of control | [8] 103 % of control

OC(CCN1CCCCC1)(c1cccs1)C(O)(CCN1CCCCC1)c1cccs1 (configuration not stated)
inactive: [3] 97 % of control | [4] 90 % of control

NC(=S)N/N=C/c1ccccc1O
inactive: [15] 96 % of control | [16] 104 % of control | dose: 100.0 mg/kg/injection, schedule: Q04DX002 (ip), vehicle: saline with Tween-80 90 % of control | [17] 91 % of control | dose: 200.0 mg/kg/injection, schedule: Q04DX002 (ip), vehicle: saline with Tween-80 104 % of control | dose: 400.0 mg/kg/injection, schedule: Q01DX001 (ip), vehicle: carboxymethylcellulose (CMC) 91 % of control | dose: 400.0 mg/kg/injection, schedule: Q04DX002 (ip), vehicle: saline with Tween-80 93 % of control

CSc1ccc(C(=O)Nc2c(N)ncnc2N)cc1
inactive: dose: 25.0 mg/kg/injection, schedule: Q01DX001 (ip), vehicle: saline 97 % of control | [11] 87 % of control | dose: 100.0 mg/kg/injection, schedule: Q01DX001 (ip), vehicle: saline with Tween-80 100 % of control | [3] 88 % of control

O=C(O)c1cc(S(=O)(=O)O)cc(Br)c1O
inactive: [12] 95 % of control | [13] 103 % of control | [14] 89 % of control

O=CC1CO1 (configuration not stated)
inactive: dose: 29.0 mg/kg/injection, schedule: Q01DX Z (ip), vehicle: steriod suspending solution 97 % of control | dose: 44.0 mg/kg/injection, schedule: Q01DX Z (ip), vehicle: steriod suspending solution 99 % of control | dose: 66.0 mg/kg/injection, schedule: Q01DX Z (ip), vehicle: steriod suspending solution 106 % of control

OC(CNCCc1ccccc1)COc1cccc2ccccc12 (configuration not stated)
inactive: [9] 97 % of control | [10] 95 % of control | dose: 100.0 mg/kg/injection, schedule: Q04DX003 (ip), vehicle: Klucel (hydroxypropylcellulose) (HPC) 95 % of control

CCOC(=O)C1CCc2c(ccc3ccccc23)N1 (configuration not stated)
inactive: [15] 100 % of control | dose: 50.0 mg/kg/injection, schedule: Q01DX009 (ip), vehicle: carboxymethylcellulose (CMC) 102 % of control and 91 % of control | dose: 50.0 mg/kg/injection, schedule: Q04DX002 (ip), vehicle: carboxymethylcellulose (CMC) 100 % of control and 106 % of control | dose: 50.0 mg/kg/injection, schedule: Q04DX003 (ip), vehicle: carboxymethylcellulose (CMC) 105 % of control | [16] 105 % of control | dose: 100.0 mg/kg/injection, schedule: Q01DX009 (ip), vehicle: carboxymethylcellulose (CMC) 94 % of control and 112 % of control | dose: 100.0 mg/kg/injection, schedule: Q04DX002 (ip), vehicle: carboxymethylcellulose (CMC) 100 % of control and 106 % of control | dose: 100.0 mg/kg/injection, schedule: Q04DX003 (ip), vehicle: carboxymethylcellulose (CMC) 107 % of control | [17] 103 % of control | dose: 200.0 mg/kg/injection, schedule: Q01DX009 (ip), vehicle: carboxymethylcellulose (CMC) 94 % of control and 102 % of control | dose: 200.0 mg/kg/injection, schedule: Q04DX002 (ip), vehicle: carboxymethylcellulose (CMC) 97 % of control and 102 % of control | dose: 200.0 mg/kg/injection, schedule: Q04DX003 (ip), vehicle: carboxymethylcellulose (CMC) 96 % of control
